What was measured:
[1] = target: MELK (Homo sapiens, UniProt Q14680); assay: Kinase assay: MELK activity, phosphorylation of FITC-labeled histone H3 peptide measured by IMAP fluorescence polarization; assay type: biochemical; conditions: read-out: IC50 (μM) (kinase assay)
Method in brief: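 Substrate is FITC-labeled histone H3 peptide. Compounds come from a 12.5 mM DMSO stock, diluted so assay DMSO is 1%. The stop step adds threefold-volume progressive binding solution, followed by 0.5 h at room temperature and an FP read.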

[2] = test system: T47D cells; assay: Cell-based assay: anti-proliferative activity, Cell Counting Kit-8, 72 hours (T47D); conditions: Homo sapiens, T47D, 72 h
Method in brief: (§1)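 IC50 values come from CCK-8 growth measurements taken 72 hours post-treatment of plated cells with test compounds. Expression of MELK across the panel was assessed through immunoblot of unfractionated lysates.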

[3] = test system: A549 cells; assay: Cell-based assay: anti-proliferative activity, Cell Counting Kit-8, 72 hours (A549); conditions: Homo sapiens, A549, 72 h, 72 hours
Method in brief: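 A549 cells seeded in 96-well plates and exposed to candidate inhibitors for 72 hours. Growth measured with Cell Counting Kit-8; IC50 values calculated from the dose response.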

[4] = test system: HT-1197 cells; assay: Cell-based assay: anti-proliferative activity, Cell Counting Kit-8, 72 hours (HT-1197, negative control without MELK expression); conditions: Homo sapiens, HT1197, 72 h, HT1197 cells (negative control, no MELK expression), 72 hours
Method in brief: as §1

[5] = test system: DU4475 cells; assay: Cell-based assay: anti-proliferative activity, Cell Counting Kit-8, 72 hours (DU4475); conditions: Homo sapiens, DU-4475, 72 h

Sequence of MELK (Q14680 whole entry, looked up): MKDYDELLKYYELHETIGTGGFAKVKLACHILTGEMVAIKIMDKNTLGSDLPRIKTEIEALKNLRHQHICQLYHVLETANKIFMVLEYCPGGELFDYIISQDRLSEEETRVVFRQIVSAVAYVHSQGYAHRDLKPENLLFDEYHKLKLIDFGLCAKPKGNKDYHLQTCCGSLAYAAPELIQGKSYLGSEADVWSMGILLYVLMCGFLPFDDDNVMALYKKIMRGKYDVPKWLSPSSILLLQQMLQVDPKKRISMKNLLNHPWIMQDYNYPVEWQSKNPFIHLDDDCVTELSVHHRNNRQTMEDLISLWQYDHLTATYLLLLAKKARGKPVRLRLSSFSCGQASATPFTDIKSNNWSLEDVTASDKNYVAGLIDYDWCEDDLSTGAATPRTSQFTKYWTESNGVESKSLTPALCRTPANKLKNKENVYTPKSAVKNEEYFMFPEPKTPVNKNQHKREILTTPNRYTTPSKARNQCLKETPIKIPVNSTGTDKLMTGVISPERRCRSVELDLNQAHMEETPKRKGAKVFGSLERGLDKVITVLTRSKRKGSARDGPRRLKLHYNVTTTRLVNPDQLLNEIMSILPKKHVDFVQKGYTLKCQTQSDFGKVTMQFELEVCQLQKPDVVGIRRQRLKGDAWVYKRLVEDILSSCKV

Row | SMILES | IC50 [1] [µM] | IC50 [2] [µM] | IC50 [3] [µM] | IC50 [4] [µM] | IC50 [5] [µM]
1 | COc1cc(-c2ccc3ncc(C(=O)C4CC4)c(Nc4ccc(N5CCC[C@@H](N)C5)nc4)c3c2)cc(Cl)c1O [Example 649, (R)-(4-(6-(3-aminopiperidin-1-yl)pyridin-3-ylamino)-6-(3-chloro-4-hydroxy-5-methoxyphenyl)quinolin-3-yl)(cyclopropyl)methanone] | 0.0021 | 0.087 | 0.15 | 1.4 | 0.077
2 | O=C(c1cnc2ccc(-c3cc(F)c(O)c(Cl)c3)cc2c1Nc1ccc(NCCO)nc1)C1CC1 [Example 679, (6-(3-chloro-5-fluoro-4-hydroxyphenyl)-4-(6-(2-hydroxyethylamino)pyridin-3-ylamino)quinolin-3-yl)(cyclopropyl)methanone] | 0.03 | 0.23 | 1.3 | 3.7 | 0.12
3 | COc1cc(-c2ccc3ncc(C(=O)C(C)C)c(Nc4ccc(N5CCNCC5)nc4)c3c2)cc(Cl)c1O [Example 680, 1-(6-(3-chloro-4-hydroxy-5-methoxyphenyl)-4-(6-(piperazin-1-yl)pyridin-3-ylamino)quinolin-3-yl)-2-methylpropan-1-one] | 0.011 | 0.59 | 1.3 | 2.4 | 1
4 | COc1cc(-c2ccc3ncc(C(C)=O)c(Nc4ccc(CCN(C)C)cc4)c3c2)cc(Cl)c1O [Example 743, 1-(6-(3-chloro-4-hydroxy-5-methoxyphenyl)-4-(4-(2-(dimethylamino)ethyl)phenylamino)quinolin-3-yl)ethanone] | 0.0042 | 0.66 | 0.53 | 4.8 | 0.36
5 | COc1cc(-c2ccc3ncc(C(=O)C(C)C)c(Nc4ccc(CN(C)C)cc4)c3c2)cc(Cl)c1O [Example 640, 1-(6-(3-chloro-4-hydroxy-5-methoxyphenyl)-4-(4-((dimethylamino)methyl)phenylamino)quinolin-3-yl)-2-methylpropan-1-one] | 0.027 | 0.54 | 0.61 | 0.82 | 0.52
6 | CC(=O)c1cnc2ccc(-c3cc(Cl)c(O)c(Cl)c3)cc2c1Nc1ccc(N2CCNCC2)nc1 [Example 702] | 0.0014 | 0.046 | 0.14 | 2.4 | 0.044
7 | CC(=O)c1cnc2ccc(-c3cc(Cl)c(O)c(Cl)c3)cc2c1Nc1ccc(CCN(C)C)cc1 [Example 744, 1-(6-(3,5-dichloro-4-hydroxyphenyl)-4-(4-(2-(dimethylamino)ethyl)phenylamino)quinolin-3-yl)ethanone] | 0.0017 | 0.11 | 0.082 | 0.43 | 0.031
8 | CCC(=O)c1cnc2ccc(-c3cc(F)c(O)c(Cl)c3)cc2c1Nc1ccc(N2CCN(C)CC2)nc1 [Example 736, 1-(6-(3-chloro-5-fluoro-4-hydroxyphenyl)-4-(6-(4-methylpiperazin-1-yl)pyridin-3-ylamino)quinolin-3-yl)propan-1-one] | 0.036 | 0.14 | 0.22 | 10 | 0.19
9 | CN1CCN(Cc2ccc(Nc3c(C(=O)C4CC4)cnc4ccc(-c5cc(Cl)c(O)c(Cl)c5)cc34)cn2)CC1 [Example 682, cyclopropyl(6-(3,5-dichloro-4-hydroxyphenyl)-4-(6-((4-methylpiperazin-1-yl)methyl)pyridin-3-ylamino)quinolin-3-yl)methanone] | 0.018 | 0.55 | 0.7 | 14 | 0.32
10 | CC(=O)c1cnc2ccc(-c3cc(Cl)c(O)c(Cl)c3)cc2c1N[C@@H]1CC[C@@H](CN2CCN(C)CC2)C1 [Example 728, 1-(6-(3,5-dichloro-4-hydroxyphenyl)-4-((1R,3R)-3-((4-methylpiperazin-1-yl)methyl)cyclopentylamino)quinolin-3-yl)ethanone] | 0.0057 | 0.83 | 0.85 | 5.7 | 0.48
11 | COc1cc(-c2ccc3ncc(C(=O)C4CC4)c(NC4CCC(C)(N)CC4)c3c2)cc(Cl)c1O (stereo not drawn) [Example 639, [4-(4-Amino-4-methylcyclohexylamino)-6-(3-chloro-4-hydroxy-5-methoxyphenyl)quinolin-3-yl](cyclopropyl)methanone] | 0.0012 | 0.1 | 0.09 | 0.46 | 0.062
12 | COc1cc(-c2ccc3ncc(C(C)=O)c(Nc4ccc(N5CCCC(N)C5)nc4)c3c2)cc(Cl)c1O (stereo not drawn) [Example 688, 1-(4-(6-(3-aminopiperidin-1-yl)pyridin-3-ylamino)-6-(3-chloro-4-hydroxy-5-methoxyphenyl)quinolin-3-yl)ethanone] | 0.0032 | 0.056 | 0.23 | 1.7 | 0.11
13 | O=C(c1cnc2ccc(-c3cc(F)c(O)c(Cl)c3)cc2c1Nc1ccc(N2CCC(O)C2)nc1)C1CC1 (stereo not drawn) [Example 671, (6-(3-chloro-5-fluoro-4-hydroxyphenyl)-4-(6-(3-hydroxypyrrolidin-1-yl)pyridin-3-ylamino)quinolin-3-yl)(cyclopropyl)methanone] | 0.025 | 0.3 | 0.85 | 4.9 | 0.52
14 | CN(CCO)C[C@H]1CC[C@H](Nc2c(C(=O)C3CC3)cnc3ccc(-c4cc(Cl)c(O)c(Cl)c4)cc23)CC1 [Example 634] | 0.0008 | 0.099 | 0.095 | 0.75 | 0.042
15 | CN(C)C[C@]1(O)CC[C@@H](Nc2c(C(=O)C3CC3)cnc3ccc(-c4cc(F)c(O)c(Cl)c4)cc23)CC1 [Example 673, (6-(3-chloro-5-fluoro-4-hydroxyphenyl)-4-((cis-4-((dimethylamino)methyl)-4-hydroxycyclohexyl)amino)quinolin-3-yl)(cyclopropyl)methanone] | 0.0042 | 0.16 | 0.16 | 1.4 | 0.089
16 | COc1cc(-c2ccc3ncc(C(=O)C4CC4)c(N[C@H]4CC[C@H](CN5CCN(C)CC5)CC4)c3c2)cc(Cl)c1O [Example 637] | 0.0035 | 0.68 | 0.32 | 2.9 | 0.67
17 | O=C(c1cnc2ccc(-c3cc(Cl)c(O)c(Cl)c3)cc2c1NC1CCC(N2CC[C@@H](F)C2)CC1)C1CC1 (stereo partly drawn) [Example 643, (R)-cyclopropyl(6-(3,5-dichloro-4-hydroxyphenyl)-4-(4-(3-fluoropyrrolidin-1-yl)cyclohexylamino)quinolin-3-yl)methanone] | 0.004 | 0.37 | 0.34 | 2.4 | 0.14
18 | O=C(c1cnc2ccc(-c3cc(Cl)c(O)c(Cl)c3)cc2c1Nc1ccc(NC2CCNC2)nc1)C1CC1 (stereo not drawn) [Example 666, cyclopropyl(6-(3,5-dichloro-4-hydroxyphenyl)-4-(6-(pyrrolidin-3-ylamino)pyridin-3-ylamino)quinolin-3-yl)methanone] | 0.024 | 0.34 | 10 | 10 | 0.071
19 | COc1cc(-c2ccc3ncc(C(=O)C4CC4)c(Nc4ccc(N5CCC(N(C)C)C5)nc4)c3c2)cc(Cl)c1O (stereo not drawn) [Example 689] | 0.013 | 0.28 | 1.5 | 9.4 | 3.2
20 | CNC[C@H]1CC[C@H](Nc2c(C(=O)C3CC3)cnc3ccc(-c4cc(Cl)c(O)c(Cl)c4)cc23)CC1 [Example 685, cyclopropyl(6-(3,5-dichloro-4-hydroxyphenyl)-4-((trans-4-((methylamino)methyl)cyclohexyl)amino)quinolin-3-yl)methanone] | 0.0016 | 0.054 | 0.14 | 0.73 | 0.018
21 | CN1CCN(Cc2ccc(Nc3c(C(=O)C4CC4)cnc4ccc(-c5cc(F)c(O)c(Cl)c5)cc34)cn2)CC1 [Example 684, (6-(3-chloro-5-fluoro-4-hydroxyphenyl)-4-(6-((4-methylpiperazin-1-yl)methyl)pyridin-3-ylamino)quinolin-3-yl)(cyclopropyl)methanone] | 0.05 | 0.88 | 1.5 | 15 | 0.82
22 | CC(=O)c1cnc2ccc(-c3cc(F)c(O)c(F)c3)cc2c1N[C@H]1CC[C@H](CN(C)C)CC1 [Example 721] | 0.035 | 0.15 | 0.32 | 3.4 | 0.22
23 | CN(C)CC(O)c1ccc(Nc2c(C(=O)C3CC3)cnc3ccc(-c4cc(F)c(O)c(Cl)c4)cc23)cc1 (stereo not drawn) [Example 707, {6-(3-Chloro-5-fluoro-4-hydroxyphenyl)-4-[4-(2-(dimethylamino)-1-hydroxyethyl)phenylamino]quinolin-3-yl}(cyclopropyl)methanone] | 0.0059 | 0.21 | 0.13 | 3.4 | 0.081
24 | COc1cc(-c2ccc3ncc(C(=O)C4CC4)c(NC4CCC(N5CCC(OC)C5)CC4)c3c2)cc(Cl)c1O (stereo not drawn) [Example 687, (6-(3-chloro-4-hydroxy-5-methoxyphenyl)-4-(4-(3-methoxypyrrolidin-1-yl)cyclohexylamino)quinolin-3-yl)(cyclopropyl)methanone] | 0.0033 | 0.63 | 0.45 | 3.3 | 0.33
